What all share (experiment): growth of human tumour cells (NCI), 48 h
Assay [1] deals with 786-0 renal.
The test system of assay [2] is ACHN renal.
Assay [3] deals with EKVX NSCLC.
The subject of assay [4] is HCT-116 colon.
In assay [5] the test system is NCI-H522 lung.
For assay [6], the system named is OVCAR-3 ovarian.
The test system of assay [7] is RPMI-8226 leukemia.
In assay [8] the test system is SF-295 CNS.
In assay [9] the test system is SW-620 colon.

Molecules are shown by their SMILES.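 Method: 48-hour compound exposure of cells in 96-well plates, five concentrations, linear interpolation of endpoints. Abbreviation: GI50, concentration required for 50% inhibition of growth. The concentration for full growth arrest is given as TGI.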

For the compound `Fc1ccc(Nc2nccc(-c3c(-c4ccc(C(F)(F)F)cc4)nn4ncccc34)n2)cc1F`, the GI50 in assay [1], in assay [2], in [3], in [4], in [5] and in [6] was more than 25 µM in each case. Further, the GI50 in assay [7] was more than 25 µM; in [8], more than 18.9 µM; in assay [9], more than 25 µM. The TGI in [1], in assay [2], in assay [3], in [4], in [5] and in assay [6] was more than 25 µM each time. Moreover, the TGI in assay [7], in assay [8] and in assay [9] was more than 25 µM in each case.

Consider `CC(=O)OC1C2(CC3N4C(=O)C5(CO)SSC4(CC31O)C(=O)N5C)OC(C)C(C)(C)C2=O` (stereo unspecified), for which the GI50 in assay [1] is 0.234 µM; in assay [2] it was less than 0.01 µM; in assay [3] it was 0.124 µM; in assay [4], 0.0696 µM; in assay [5] it was 1.33 µM; in [6], 1.32 µM. In addition, the values for the GI50 in [7], in [8] and in [9] were less than 0.0398 µM, 1.96 µM and less than 0.01 µM, respectively. Moreover, the TGI is 0.528 µM in assay [1]; 0.0225 µM in assay [2]; 0.709 µM in [3]; 0.212 µM in [4]; 3.17 µM in assay [5]; 3.01 µM in assay [6]. In addition, the TGI in assay [8] worked out at 3.94 µM; in [9] it was 0.0136 µM.

Turning to `COc1ccc2c(c1)C(=O)c1c-2n(CCCN2CCOCC2)c(=O)c2ccccc12`, the GI50 in [1] was 2.38 µM; in [2], 1.69 µM; in assay [3], 4.52 µM; in [4] it was 1.66 µM; in assay [5] it was 1.52 µM; in [6] it was 2.94 µM. The GI50 was 1.35 µM in assay [7], 1.35 µM in assay [8] and 2.31 µM in assay [9]. The TGI is 9.46 µM in [1]; 4.07 µM in [2]; more than 89.2 µM in [3]; 4.54 µM in [4]; 13.9 µM in [5]; 12.2 µM in assay [6]. The TGI in assay [7] is 5.59 µM; in assay [8], 9.71 µM; in assay [9] it was more than 100 µM.

Turning to `Cc1c(C)c2ccc(OC/C=C3\CCC(=O)O3)cc2oc1=O`, the GI50 in assay [1] was 5.35 µM; in [3], 18.7 µM; in assay [4], 13.3 µM; in [5], 10.2 µM; in assay [6], 15.8 µM; in assay [7], 6.1 µM. In addition, the GI50 in assay [8] was 20.5 µM; in [9], 18 µM. Moreover, the TGI in assay [1] stood at 20.8 µM; in assay [3], 40 µM; in assay [4], 26.3 µM; in [5], 23.7 µM; in assay [6], 30.3 µM; in [7], 40.9 µM. In addition, the TGI in [8] was found to be 45 µM; in [9], 40 µM.

Consider `CCN1C(=O)N(CC)C2C1NN=c1s/c(=C3\C(=O)N(C)c4ccccc43)c(=O)n12` (stereo unspecified), for which the GI50 in assay [1] is 1.94 µM; in [2] it was 0.752 µM; in assay [3], 3.25 µM; in assay [4], 1.1 µM; in [5], 0.609 µM; in assay [6], 0.382 µM. Also, the figures for the GI50 in assay [7], in [8] and in assay [9] were 0.89 µM, 0.999 µM and 0.58 µM, respectively. For the same compound, the TGI in assay [1] was more than 100 µM; in [2] it was more than 100 µM; in assay [3] it was more than 100 µM; in [4] it was more than 43.6 µM; in assay [5], 33 µM; in assay [6], 8.18 µM. Also, the values for the TGI in assay [7], in assay [8] and in assay [9] were 12.6 µM, more than 28.8 µM and more than 100 µM, respectively.

Regarding `Cc1ccc2c(c1)ncn2-c1ncnc2c1CC(C)c1ccccc1N2C` (stereo unspecified), the GI50 in [1] is 0.487 µM; in [2], 0.383 µM; in assay [3] it was 0.154 µM; in [4], 0.0669 µM; in assay [5], 0.121 µM; in assay [6] it was 0.0389 µM. The GI50 in [7] was 0.149 µM; in [8], 0.0486 µM; in assay [9] it was 0.0435 µM. Further, the TGI came to 14.7 µM in assay [1]; 12.1 µM in assay [2]; 18 µM in [3]; 13 µM in assay [4]; 5.68 µM in assay [5]; 0.409 µM in assay [6]. In addition, the TGI was found to be 1.82 µM in [7], 12.2 µM in [8] and 15.9 µM in [9].

For the compound `C=C[C@]1(C)C=C2C(=O)[C@@]3(O)OC[C@@]4(CCCC(C)(C)C43O)C2(O)C(O)C1` (stereo partly specified), the GI50 in assay [1] is 2.21 µM; in assay [2], 1.54 µM; in assay [3], 15 µM; in [4], 1.18 µM; in [5] it was 0.631 µM; in assay [6], 2.52 µM. For the same compound, the GI50 in assay [7] is 21 µM; in assay [8], 21.6 µM; in assay [9] it was 0.827 µM. The TGI amounted to 5.51 µM in assay [1]; 3.1 µM in assay [2]; 31.3 µM in [3]; 2.46 µM in [4]; 2.84 µM in assay [5]; 5.9 µM in [6]. Also, the TGI is more than 100 µM in assay [7], more than 70.5 µM in assay [8] and 2.31 µM in [9].

On to `O=C(Nc1cc(Cl)c(Cl)cc1Cl)C(=O)C(C(=O)c1ccc(Cl)c(Cl)c1)C1OC(=O)c2ccccc21` (stereo unspecified), for which the TGI came out at 27.3 µM in assay [1]; 31.7 µM in [2]; 58 µM in assay [3]; 28.8 µM in [4]; 23.3 µM in [5]; 32.6 µM in assay [6]. Besides, the figures for the TGI in assay [7], in assay [8] and in [9] were 86.7 µM, 36.6 µM and 38.3 µM, respectively.

Turning to `O=[N+]([O-])c1ccc(CS(=O)Cc2ccccc2)cc1` (stereo unspecified), the TGI in assay [1], in assay [2], in [3], in [4], in [5] and in [6] was more than 100 µM throughout. For the same compound, the TGI in assay [7], in assay [8] and in assay [9] was more than 100 µM each time.

The values above are taken from PubChem BioAssay (NCI).
